Results: patent publication US4324728A, “Compound nanaomycin A and derivatives thereof and a process for producing the same” (The Kitasato Institute, priority 1976, dated 1982)
In brackets after ≈: the same amount, converted by molar mass. Read-outs that look alike come from different tables or passages of the source.

Legend:
Trichophyton verrucosum = test: Treatment of dermatomycosis of cattle; type: in vivo; parameters: key: +++: complete removal of scales and; ++: a little scales remained; +: removal of a part of scales; -: no removal of scale and no recovery
Description: When dermatomycosis of cattle caused by mass infection of Trichophyton verrucosum is treated with nanaomycin A, nanaomycin A is dissolved or suspended in a suitable carrier, for example, olive oil, and is coated on the affected part directly with or without removal of the scales. […] The results obtained by once-coating of nanaomycin A and by twice-coating (the second coating is carried out a week after the first coating) are shown in Tables 2 and 3, respectively. | I : direct coating on affected part | II : coating after removing the scales of affected | Con. : concentration of agent

Shigella flexneri = test: Minimal inhibitory concentration (agar); type: cell-based; conditions: 48 h, nutrient agar, pH 7.0, 2 days, 37° C.
Description: (§1) Medium N nutrient agar (pH 7.0, 2 days, 37° C.)
(§2) MIC Minimal inhibitory concentration
(§3) N nutrient agar (pH 7.0, 2 days, 37° C.)

Pseudomonas aeruginosa = test: Minimal inhibitory concentration (agar); type: cell-based; conditions: 48 h, nutrient agar, pH 7.0, 2 days, 37° C.
Description: as §1, §2, §3

[1] = system: Aspergillus fumigatus IAM 2612; test: Minimal inhibitory concentration (agar); type: cell-based; conditions: IAM2612, 96 h, potato agar, pH 6.4, 4 days, 27° C.
Description: (§4) P potato agar (pH 6.4, 4 days, 27° C.)
as §2

[2] = system: fungi belonging to the genus Trichophyton; test: Growth inhibition (text summary of Table 1); type: cell-based; conditions: 96 h, some fungi of the genus, read-out: concentration at which growth is inhibited
Description: | P potato agar (pH 6.4, 4 days, 27° C.)

Mycoplasma gallisepticum = test: Growth inhibition (text summary of Table 1); type: cell-based; conditions: Mycoplasmoides gallisepticum, 192 h; read-out: concentration at which growth is inhibited
Description: H Hokken PPLO agar (pH 7.8, 8 days, 37° C.)
E Eiken PPLO agar (pH 7.8, 8 days, 37° C.)

Mycobacterium smegmatis = test: Minimal inhibitory concentration (agar); type: cell-based; conditions: Mycolicibacterium smegmatis, 48 h; nutrient agar, pH 7.0, 2 days, 37° C.
Description: as §1, §2

[3] = system: Tricophyton metagorphytes; test: Treatment of dermatomycosis at the back of guinea pigs; type: in vivo; conditions: 0.01-1% solution in propyleneglycol-ethanol (3:1 v/v), once daily for 8 days
Microsporum gypseum = test: Minimal inhibitory concentration (agar dilution method); type: cell-based; conditions: Nannizzia gypsea, 96 h; potato agar, pH 6.4, 27° C., 4 days; read-out: Minimal Inhibitory Con.
Description: (§5) Minimal inhibitory concentration was assayed by agar dilution method
(§6) (potato agar, pH 6.4, 27° C., 4 days).

Aspergillus fumigatus = test: as above; type: cell-based; conditions: Aspergillus fumigatus, 96 h; potato agar, pH 6.4, 27° C., 4 days; read-out: Minimal Inhibitory Con.
Description: as §5, §6

Trichophyton ferrugineum = test: Minimal inhibitory concentration (agar); type: cell-based; conditions: pH 6.4, 4 days, 27° C.
Escherichia coli NIHJ = test: Minimal inhibitory concentration (agar); type: cell-based; conditions: 48 h, nutrient agar, pH 7.0, 2 days, 37° C.
Aspergillus niger = test: Minimal inhibitory concentration (agar); type: cell-based; conditions: Aspergillus niger, 96 h; potato agar, pH 6.4, 4 days, 27° C.; read-out: MIC
Description: as §5, §6, §4

Staphylococcus aureus = test: Growth inhibition (text summary of Table 1); type: cell-based; conditions: 48 h, read-out: concentration at which growth is inhibited
Description: as §1

Microsporum gypseum 704 = test: Minimal inhibitory concentration (agar); type: cell-based; conditions: Nannizzia gypsea, 704, 96 h; potato agar, pH 6.4, 4 days, 27° C.
[4] = system: Escherichia coli NIHJ (JC-2); test: Minimal inhibitory concentration (agar); type: cell-based; conditions: 48 h, pH 7, nutrient agar, pH 7.0, 2 days, 37° C.
Description: as §1, §2, §3

[5] = system: Trichophyton mentagrophytes; test: Minimal inhibitory concentration (agar); type: cell-based; conditions: 96 h, pH 6.4, potato agar, pH 6.4, 4 days, 27° C.
fungi = test: Antifungal activity (in words); type: cell-based
Acute toxicity in mice = conditions: intra-penetrial injection
Trichophyton pedis 804 = test: Minimal inhibitory concentration (agar); type: cell-based; conditions: Trichophyton pedis, 804, 96 h, pH 6.4, potato agar, pH 6.4, 4 days, 27° C.; read-out: MIC
Trichophyton violaceum = test: Minimal inhibitory concentration (agar); type: cell-based; conditions: Trichophyton violaceum, 96 h, pH 6.4, potato agar, pH 6.4, 4 days, 27° C.; read-out: MIC
[6] = once-coating, I direct coating, 0.1 mg/ml
[7] = once-coating, I direct coating, 1 mg/ml
[8] = once-coating, I direct coating, 10 mg/ml
[9] = once-coating, II after removing scales, 0.1 mg/ml
[10] = once-coating, II after removing scales, 1 mg/ml
[11] = once-coating, II after removing scales, 10 mg/ml
[12] = twice-coating, I direct coating, 0.1 mg/ml
[13] = twice-coating, I direct coating, 1 mg/ml
[14] = twice-coating, I direct coating, 10 mg/ml
[15] = twice-coating, II after removing scales, 0.1 mg/ml
[16] = twice-coating, II after removing scales, 1 mg/ml
[17] = twice-coating, II after removing scales, 10 mg/ml
[18] = Microsporum ferrugineum, 96 h, pH 6.4, potato agar, read-out: MIC

SMILES: CC1OC(CC(=O)O)CC2=C1C(=O)c1c(O)cccc1C2=O (centres unmarked) [Nanaomycin A, nanaomycin A]
- Result after 1 week (Trichophyton verrucosum; [6]): ++
- Result after 2 weeks (Trichophyton verrucosum; [6]): ++
- Result after 3 weeks (Trichophyton verrucosum; [6]): +++
- Result after 4 weeks (Trichophyton verrucosum; [6]): +++
- Result after 1 week (Trichophyton verrucosum; [7]): +++
- Result after 2 weeks (Trichophyton verrucosum; [7]): +++
- Result after 3 weeks (Trichophyton verrucosum; [7]): +++
- Result after 4 weeks (Trichophyton verrucosum; [7]): +++
- Result after 1 week (Trichophyton verrucosum; [8]): +++
- Result after 2 weeks (Trichophyton verrucosum; [8]): +++
- Result after 3 weeks (Trichophyton verrucosum; [8]): +++
- Result after 4 weeks (Trichophyton verrucosum; [8]): +++
- Result after 1 week (Trichophyton verrucosum; [9]): +++
- Result after 2 weeks (Trichophyton verrucosum; [9]): +++
- Result after 3 weeks (Trichophyton verrucosum; [9]): +++
- Result after 4 weeks (Trichophyton verrucosum; [9]): +++
- Result after 1 week (Trichophyton verrucosum; [10]): +++
- Result after 2 weeks (Trichophyton verrucosum; [10]): +++
- Result after 3 weeks (Trichophyton verrucosum; [10]): +++
- Result after 4 weeks (Trichophyton verrucosum; [10]): +++
- Result after 1 week (Trichophyton verrucosum; [11]): +++
- Result after 2 weeks (Trichophyton verrucosum; [11]): +++
- Result after 3 weeks (Trichophyton verrucosum; [11]): +++
- Result after 4 weeks (Trichophyton verrucosum; [11]): +++
- Result after 1 week (Trichophyton verrucosum; [12]): ++
- Result after 2 weeks (Trichophyton verrucosum; [12]): +++
- Result after 3 weeks (Trichophyton verrucosum; [12]): +++
- Result after 4 weeks (Trichophyton verrucosum; [12]): +++
- Result after 1 week (Trichophyton verrucosum; [13]): ++
- Result after 2 weeks (Trichophyton verrucosum; [13]): ++
- Result after 3 weeks (Trichophyton verrucosum; [13]): +++
- Result after 4 weeks (Trichophyton verrucosum; [13]): +++
- Result after 1 week (Trichophyton verrucosum; [14]): +++
- Result after 2 weeks (Trichophyton verrucosum; [14]): +++
- Result after 3 weeks (Trichophyton verrucosum; [14]): +++
- Result after 4 weeks (Trichophyton verrucosum; [14]): +++
- Result after 1 week (Trichophyton verrucosum; [15]): +++
- Result after 2 weeks (Trichophyton verrucosum; [15]): +++
- Result after 3 weeks (Trichophyton verrucosum; [15]): +++
- Result after 4 weeks (Trichophyton verrucosum; [15]): +++
- Result after 1 week (Trichophyton verrucosum; [16]): +++
- Result after 2 weeks (Trichophyton verrucosum; [16]): +++
- Result after 3 weeks (Trichophyton verrucosum; [16]): +++
- Result after 4 weeks (Trichophyton verrucosum; [16]): +++
- Result after 1 week (Trichophyton verrucosum; [17]): +++
- Result after 2 weeks (Trichophyton verrucosum; [17]): +++
- Result after 3 weeks (Trichophyton verrucosum; [17]): +++
- Result after 4 weeks (Trichophyton verrucosum; [17]): +++
- MIC (Shigella flexneri): 31.3 µg/mL (≈ 104 µM)
- MIC (Pseudomonas aeruginosa): 500 µg/mL (≈ 1650 µM)
- MIC [1]: 12.5 µg/mL (≈ 41.4 µM)
- MIC [2]: ≤ 3.1 µg/mL
- MIC (Mycoplasma gallisepticum): ≤ 0.1 µg/mL
- MIC (Mycobacterium smegmatis): 62.5 µg/mL (≈ 207 µM)
- therapeutic effect on erythema and scales [3]: excellent therapeutic effect
- MIC (Microsporum gypseum): 0.8 µg/mL (≈ 2.65 µM)
- MIC (Aspergillus fumigatus): 6.3 µg/mL (≈ 20.8 µM)
- MIC (Trichophyton ferrugineum; [18]): 0.8 µg/mL (≈ 2.65 µM)
- MIC (Trichophyton ferrugineum; potato agar): 1.6 µg/mL (≈ 5.29 µM)
- MIC (Escherichia coli NIHJ): 31.3 µg/mL (≈ 104 µM)
- MIC (Aspergillus niger): 25 µg/mL (≈ 82.7 µM)
- MIC (Staphylococcus aureus): 2 to 8 µg/mL (≈ 6.62 to 26.5 µM)
- MIC (Microsporum gypseum 704): 0.8 µg/mL (≈ 2.65 µM)

SMILES: CC(=O)Oc1cccc2c1C(=O)C1=C(CC(CC(=O)O)OC1C)C2=O (centres unmarked) [Acetylnanaomycin A, acetylnanaomycin A]
- MIC [4]: > 100 µg/mL
- MIC [5]: 0.4 µg/mL (≈ 1.16 µM)
- activity against fungi (fungi): as strong activity against fungi and mycoplasmas as nanaomycin A
- MIC (Trichophyton ferrugineum; [18]): 0.8 µg/mL (≈ 2.32 µM)
- acute toxicity compared with nanaomycin A (Acute toxicity in mice): lower than that of nanaomycin A
- MIC (Trichophyton pedis 804): 0.8 µg/mL (≈ 2.32 µM)
- MIC (Trichophyton violaceum): 0.8 µg/mL (≈ 2.32 µM)
- MIC (Microsporum gypseum 704): 0.4 µg/mL (≈ 1.16 µM)
